Laboratory results from ChEMBL document CHEMBL1137817, “Potential antitumor-promoting diterpenes from the cones of Pinus luchuensis” (J Nat Prod, 2002).

Experiments:
Type in all cases: cell-based
Raji [1] = experiment: Inhibition of 12-O-tetradecanoylphorbol 13-acetate-induced Epstein-Barr virus early antigen activation in human Raji cells assessed as EA induction at 1000 mol ratio relative to TPA; design: scale not given: the % may be the effect or the level left; conditions: human gammaherpesvirus 4
Raji [2] = experiment: Inhibition of 12-O-tetradecanoylphorbol 13-acetate-induced Epstein-Barr virus early antigen activation in human Raji cells assessed as EA induction at 500 mol ratio relative to TPA; design: scale not given: the % may be the effect or the level left; conditions: human gammaherpesvirus 4
Raji [3] = experiment: Inhibition of 12-O-tetradecanoylphorbol 13-acetate-induced Epstein-Barr virus early antigen activation in human Raji cells assessed as EA induction at 100 mol ratio relative to TPA; design: scale not given: the % may be the effect or the level left; conditions: human gammaherpesvirus 4
Raji [4] = experiment: Inhibition of 12-O-tetradecanoylphorbol 13-acetate-induced Epstein-Barr virus early antigen activation in human Raji cells assessed as EA induction at 10 mol ratio relative to TPA; design: scale not given: the % may be the effect or the level left; conditions: human gammaherpesvirus 4
[5] = Cytotoxicity against human Raji cells assessed as cell viability at 1000 molar ratio after 48 hours relative to TPA; conditions: read-out: Activity

With `C=C[C@]1(C)C=C2CC[C@@H]3[C@](C)(CCC[C@@]3(C)C(=O)O)[C@H]2CC1` [SANDARACOPIMARIC ACID] the Activity (Raji [1]) was 0%, the Activity (Raji [2]) was 22.5% and the Activity (Raji [3]) was 70.4%. It also gave an Activity (Raji [4]) of 91.9% and a viability at 48 h, 1000 molar ratio relative to TPA [5] of 70%.

`C=C1CC[C@@H]2[C@](C)(CCC[C@]2(C)C(=O)O)[C@H]1C/C=C(\C)C(=O)O` gave an Activity (Raji [1]) of 5%, an Activity (Raji [2]) of 47.1% and an Activity (Raji [3]) of 74.4%. For the same compound, the Activity (Raji [4]) was 93.4% and the viability at 48 h, 1000 molar ratio relative to TPA [5] was 60%.

Work on `CC1=C(/C=C/C(C)=C/C=C/C(C)=C/C=C/C=C(C)/C=C/C=C(C)/C=C/C2=C(C)CCCC2(C)C)C(C)(C)CCC1` [BETA CAROTENE] yielded an Activity (Raji [1]) of 9%, an Activity (Raji [2]) of 34% and an Activity (Raji [3]) of 82%. It also gave an Activity (Raji [4]) of 100% and a viability at 48 h, 1000 molar ratio relative to TPA [5] of 90%.

`C=C1CC[C@@H]2[C@](C)(CCC[C@]2(C)C(=O)O)[C@H]1C/C=C(\C)C=O` showed an Activity (Raji [1]) of 0%, an Activity (Raji [2]) of 31.4% and an Activity (Raji [3]) of 68.5%. For the same compound, the Activity (Raji [4]) was 91.4% and the viability at 48 h, 1000 molar ratio relative to TPA [5] was 70%.

In the case of `C=C/C(C)=C/C[C@H]1C(=C)CC[C@@H]2[C@]1(C)CCC[C@]2(C)C(=O)O`, the Activity (Raji [1]) is reported as 4.4%, the Activity (Raji [2]) is reported as 46.2% and the Activity (Raji [3]) is reported as 75.3%. The Activity (Raji [4]) was 90.5% and the viability at 48 h, 1000 molar ratio relative to TPA [5] was 60%.

With `CC(C)c1ccc2c(c1)CC[C@H]1[C@](C)(C(=O)O)CCC[C@]21C` [DEHYDROABIETIC ACID] the Activity (Raji [1]) was 2.9%, the Activity (Raji [2]) was 32.7% and the Activity (Raji [3]) was 69.8%. For the same compound, the Activity (Raji [4]) was 97.9% and the viability at 48 h, 1000 molar ratio relative to TPA [5] was 70%.
